Test results reported in patent US7556825B2, “Method for promoting hair growth” (Anticancer, Inc., priority 1993, dated 2009).

How the values were obtained:
[1] = system: Fischer or Sprague-Dawley rats; conditions: cited from earlier work; for alopecia in young rats after treatment: starting from the head, around one to two weeks after treatment
Sprague-Dawley rats = conditions: ip chemotherapy
Experimental: 8-day old Sprague-Dawley rats are treated topically with liposome compositions as described in Example 1 containing a compound such as p21 to be screened for its effect on chemotherapy-induced alopecia. The liposome composition is provided at a concentration of 100 μg/ml in 1 mM β-mercaptoethanol, for 2 days. […] The rats are then treated with cyclophosphamide, CTX (35 mg/kg, ip once) with the combination of CTX (25 mg/kg)+doxorubicin, DOX (2.5 mg/kg), ip once per day for 3 days, respectively. One rat pup without chemotherapy was used as control.

patients = conditions: cited from earlier work
hair follicles [2] = experiment: Liposome-mediated delivery of calcein dye to hair follicles in mouse skin histoculture; format: cell-based
Experimental: For the histoculture of skin, pieces of shaved outbred white-haired-mouse or nude-mouse skin, approximately 2×5×2 mm, were harvested under a dissection microscope and then histocultured on collagen-gel supported sponge as described by Li et al., Proc. Natl. Acad. Sci. USA 88:1908-1912, 1991. Histoculture was continued for about 24 hours prior to contacting the skin histoculture with the liposome preparation.
Liposomes were prepared by sonication of about 15 mg or 25 mg, preferably 25 mg, phosphatidylcholine (PC) emulsion in phosphate buffered saline (PBS) containing about 20 mg/ml of the fluorescent dye calcein. Liposomes were also prepared by entrapping NBD-phosphatidylcholine fluorescent dye using an emulsion with about 20 mg/ml of the NBD formulation. Liposomes were separated from the non-entrapped dye by gel-filtration on a Sepharose 4B column diluted with phosphate buffered saline. The amount of entrapped dye was measured spectrofluorometrically. Two types of PC were used: egg PC (EPC) and dipalmitoyl PC (DPPC). Due to their phase transition temperatures, liposomes made of DPPC are in a gel phase at about 37° C. while liposomes prepared from EPC are in a liquid-crystalline state.
Samples of the mouse skin histocultures were incubated for about 20 minutes with each of the liposomes and with a solution of “free” calcein dye at the same concentrations used in the liposome preparation. After the tissue samples were thoroughly washed with culture medium free of liposomes to remove excess liposome composition, the specimens were analyzed with a BioRad MRC 600 laser confocal microscope with a BHS filter block, which excites the tissue at 488 nm and passes the light emitted at 520 nm. These parameters are close to the excitation and emission maxima reported for calcein, Haugland, (Ed.) Molecular probes. Handbook of Fluorescent Probes and Research Chemicals, Molecular Probes, Inc., Eugene, (1989-1991 and 1992-1993). There is no autofluorescence of tissue when these emission and excitation wavelengths are used. […]

hair follicles [3] = conditions: mouse, in vivo
Experimental: Liposomes were prepared essentially as described in Example 1. […] Thereafter, 0.5 ml of either calcein (10 mg/ml) or melanin (10 mg/ml) solution, respectively, were added to sonicated PC liposome composition, and further sonicated for 6 minutes, followed by freeze-thawing three times. […] A sample of about 250 microliters of the liposome composition entrapping calcein or melanin was applied directly to the dorsal skin on the mouse in an area of approximately 1.5 cm^2 using a sutured band-aid patch to immobilize the liposome composition onto the skin and to prevent evaporation. The liposome composition was re-applied every 1 hour for 6 hours, with the last application remaining for a total of 24 hours at which time the skin samples were taken by punch biopsy for analysis. For time course experiments, one mouse was used for each time period, with 6 punch biopsies taken from each mouse, at 0.5, 1, 2, 4, 6, 16 and 24 hours. […] Skin samples containing calcein were also analyzed by spectrofluorimetry to determine the effective concentration of a delivered beneficial compound into a selected tissue. […] The sonicated sample was then centrifuged for 10 minutes in a microcentrifuge at 14,000×g, and the resulting supernatant was measured by spectrofluorimetry at an excitation wavelength of 496 nm and an emission wavelength of 517 nm for detecting calcein. The concentration of calcein delivered into the skin tissue was determined from the spectrofluorometric readings by comparison to a standard curve. Skin samples containing melanin were also analyzed by is spectrophotometry to determine the effective concentration of a delivered beneficial compound into a selected tissue. […] The sonicated sample was then centrifuged for 10 minutes in a microcentrifuge at 14,000×g, and the resulting supernatant was measured by spectrophotometry at an absorption wavelength of 300 nm for detecting absorption by melanin. The concentration of melanin delivered into the skin tissue was determined from the spectrophotometric readings by comparison to a standard curve.

hair follicles [4] = experiment: In vivo topical liposome-melanin coloring of regrowing hair in depilated white-haired mice; design: species or system mouse
Excerpt: 3-4 week old white-haired mice were depilated by a mixture of bees wax and rosin gum. Topical application of liposome-melanin as described herein was started on day 6 after depilation. […] The skin surface was then washed with an excess of water and wipe-dried with a gauze pad. The out-growing hair was micro-photographed. The same concentration of naked melanin solution as entrapped into liposomes was used as the control. In another experiment, 3-4 week old white-haired mice were depilated by a mixture of bees wax and rosin gum. Topical application of liposome-melanin composition was started on day 10 after depilation. The melanin used in this experiment was from Biosource, SF, CA #MM-8A-1. The liposome-melanin composition was applied on the skin of mice twice per day for 3 days. The treated skin surface was then washed with an excess of water and wipe-dried with a gauze pad. The mice were then photographed. The same concentration of naked melanin solution as entrapped into liposomes was used as the control.

hair follicles [5] = experiment: Liposome-mediated delivery of melanin to hair follicles in white-haired mouse skin histoculture; format: cell-based
Experimental: To that end, liposomes were prepared by sonication. About 20 mg of egg phosphatidycholine was rotary evaporated with a vacuum drier from a chloroform solution to form a thin film on the walls of a 5 ml round-bottomed flask for about 1 hour. The dried thin film phospholipid was suspended in about 0.5 ml phosphate buffered saline (pH 7.4) on a vortex mixer and then sonicated with a Branson probe-type sonicator fitted with a microtip at power level 3 for about 8 minutes. Then 0.5 ml of a solution of melanin (10 mg/ml) was entrapped with the above suspension by sonication for about an additional 4 minutes. Liposomes were separated from the non-entrapped melanin by gel-filtration on a Sepharose 4B column equilibrated with phosphate buffered saline.
Pieces of outbred white-haired mouse skin derived from 1-2 weeks-old animals (about 2×5×2 mm each) were harvested under a dissection microscope. […] Liposome interaction with the skin was initiated after about 24 hours of histoculture. Mouse skin histocultures were incubated for about 12 hours with liposomes. […]
The skin histocultures were counter-stained with the dye 2′,7′-bis(2-carboxyethyl)-5 which is activated to fluorescence by nonspecific esterases present only in living cells. After the tissues were thoroughly washed, the specimens were analyzed with a Nikon fluorescence microscope equipped with a fluorescein cube. […]

C=C1/C(=C\C=C2/CCC[C@]3(C)[C@@H]([C@H](C)CCCC(C)(C)O)CC[C@@H]23)C[C@@H](O)C[C@@H]1O [1,25-dihydroxyvitamin D3]
prevention of alopecia induced by cytoxan or etoposide ([1]; topical): prevents alopecia induced by cytoxan or etoposide

O=P1(N(CCCl)CCCl)NCCCO1 (centres unmarked) [CTX, cyclophosphamide]
alopecia in young rats after treatment [1]: develop alopecia | other toxic effects in rat pups (Sprague-Dawley rats): No other toxic effects were noted | alopecia in rat pups (Sprague-Dawley rats; noted at day-7): alopecia can be seen | patients with severe alopecia (patients; intravenous): 75-90%

Nc1ccn([C@@H]2O[C@H](CO)[C@@H](O)[C@@H]2O)c(=O)n1 [ara-C]
alopecia in young rats after treatment [1]: develop alopecia

COc1cccc2c1C(=O)c1c(O)c3c(c(O)c1C2=O)C[C@@](O)(C(=O)CO)C[C@@H]3O[C@H]1C[C@H](N)[C@H](O)[C@H](C)O1 [doxorubicin]
alopecia in young rats after treatment [1]: develop alopecia | hair loss in patients (patients; human, in vivo): 85-100%

O=C(O)CN(CC(=O)O)Cc1cc2c(cc1O)Oc1cc(O)c(CN(CC(=O)O)CC(=O)O)cc1C21OC(=O)c2ccccc21 [free calcein, calcein]
delivery of calcein into hair follicles by topical use (hair follicles [2]; histoculture topically treated 48 hours): rarely penetrated through the skin to stain the hair follicles | delivery of green fluorescent dye to hair follicles and shafts (hair follicles [2]; histoculture treated 48 hours, propidium iodide counterstain): very weak staining of a few hair follicles | delivery of fluorescent dye to hair follicles (confocal fluorescence microscopy) (hair follicles [2]; skin histoculture incubated about 20 minutes): relatively low fluorescence with no preferential staining of any particular skin structure | delivery of calcein into hair follicles and shafts (fluorescent microscopy) (hair follicles [3]): trapped in the stratum corneum and did not enter the hair shafts or follicles | calcein delivered in the hair follicles (hair follicles [3]; outbred white-haired, 24 h): about 1.4 ng/mm^2

melanin [naked melanin]
melanin delivered to the hair follicles (hair follicles [3]): less than 2.0 ug/mm^2 | coloring of out-growing hair (hair follicles [4]; topical once per day for 4 days from day 6 after depilation): No hair coloring is observed | coloring of regrown hair (hair follicles [4]; topical twice per day for 3 days from day 10 after depilation): regrown hair remained white | localization of melanin in hair follicles and hair shafts (H&E paraffin section) (hair follicles [5]): no “free” melanin can be observed either in hair shafts or the hair follicular cells
